# Results from PubChem BioAssay AID342 (DTP/NCI, 2004).
# Several values for one entry are separate records, joined by “and”; a condition that tells them apart may be missing. Equal entries are not always repeated.
# Test system: Swiss mice, Sarcoma 180 sc, mean tumor weight T/C
# Assay: NCI In Vivo Anticancer Drug Screen. Data for tumor model Sarcoma 180 (subcutaneous) in Swiss mice
# Conditions: endpoint: mean tumor weight, higher = larger tumour
# Procedure, shortened: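 Readout is the ratio of treated-group measurement to vehicle-control measurement (T/C), based on survival or tumor size in mice carrying transplanted tumors.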
smiles,measurement,setting,value
O=C1C=CC2(CCC23C=CC(=O)O3)O1 (stereo not drawn),T/C,"dose: 40.0 mg/kg/injection, schedule: Q01DX007 (ip), vehicle: saline",88 % of control
CN1CCC=C(C(=O)O)C1,T/C,"dose: 10.0 mg/kg/injection, schedule: Q01DX007 (ip), vehicle: water",78 % of control
same,T/C,"dose: 50.0 mg/kg/injection, schedule: Q01DX007 (ip), vehicle: water",75 % of control
same,T/C,"dose: 100.0 mg/kg/injection, schedule: Q01DX007 (ip), vehicle: water",83 % of control
CC=C(/C(=C/C)c1ccc(O)cc1)c1ccc(O)cc1,T/C,"dose: 15.0 mg/kg/injection, schedule: Q01DX007 (ip), vehicle: carboxymethylcellulose (CMC)",52 % of control
same,T/C,"dose: 20.0 mg/kg/injection, schedule: Q01DX007 (ip), vehicle: carboxymethylcellulose (CMC)",42 % of control
same,T/C,"dose: 27.5 mg/kg/injection, schedule: Q#A X014 (ip), vehicle: carboxymethylcellulose (CMC)",40 % of control and 54 % of control
same,T/C,"dose: 30.0 mg/kg/injection, schedule: Q01DX007 (ip), vehicle: carboxymethylcellulose (CMC)",48 % of control
same,T/C,"dose: 44.0 mg/kg/injection, schedule: Q01DX007 (ip), vehicle: carboxymethylcellulose (CMC)",31 % of control and 40 % of control
same,T/C,"dose: 66.0 mg/kg/injection, schedule: Q01DX007 (ip), vehicle: carboxymethylcellulose (CMC)",35 % of control
same,T/C,"dose: 80.0 mg/kg/injection, schedule: Q01DX007 (sc), vehicle: carboxymethylcellulose (CMC)",58 % of control
same,T/C,"dose: 80.0 mg/kg/injection, schedule: Q01DX007 (sc), vehicle: steriod suspending solution",14 % of control
same,T/C,"dose: 94.0 mg/kg/injection, schedule: Q#A X014 (ip), vehicle: carboxymethylcellulose (CMC)",50 % of control and 69 % of control
same,T/C,"dose: 100.0 mg/kg/injection, schedule: Q01DX007 (ip), vehicle: carboxymethylcellulose (CMC)",52 % of control
same,T/C,"dose: 124.0 mg/kg/injection, schedule: Q01DX007 (ip), vehicle: carboxymethylcellulose (CMC)",104 % of control
same,T/C,"dose: 150.0 mg/kg/injection, schedule: Q01DX007 (ip), vehicle: carboxymethylcellulose (CMC)",39 % of control
same,T/C,"dose: 160.0 mg/kg/injection, schedule: Q01DX007 (sc), vehicle: carboxymethylcellulose (CMC)",52 % of control
same,T/C,"dose: 160.0 mg/kg/injection, schedule: Q01DX007 (sc), vehicle: steriod suspending solution",23 % of control
same,T/C,"dose: 188.0 mg/kg/injection, schedule: Q01DX007 (ip), vehicle: carboxymethylcellulose (CMC)",84 % of control
same,T/C,"dose: 225.0 mg/kg/injection, schedule: Q01DX007 (ip), vehicle: carboxymethylcellulose (CMC)",28 % of control and 31 % of control
same,T/C,"dose: 277.0 mg/kg/injection, schedule: Q01DX007 (ip), vehicle: carboxymethylcellulose (CMC)",71 % of control
same,T/C,"dose: 281.0 mg/kg/injection, schedule: Q01DX007 (ip), vehicle: carboxymethylcellulose (CMC)",63 % of control
same,T/C,"dose: 320.0 mg/kg/injection, schedule: Q01DX007 (sc), vehicle: carboxymethylcellulose (CMC)",30 % of control
same,T/C,"dose: 320.0 mg/kg/injection, schedule: Q01DX007 (sc), vehicle: steriod suspending solution",23 % of control
same,T/C,"dose: 333.0 mg/kg/injection, schedule: Q01DX007 (ip), vehicle: carboxymethylcellulose (CMC)",29 % of control
same,T/C,"dose: 422.0 mg/kg/injection, schedule: Q01DX007 (ip), vehicle: carboxymethylcellulose (CMC)",58 % of control and 65 % of control
same,T/C,"dose: 500.0 mg/kg/injection, schedule: Q01DX007 (ip), vehicle: carboxymethylcellulose (CMC)",24 % of control and 38 % of control
same,T/C,"dose: 630.0 mg/kg/injection, schedule: Q01DX007 (ip), vehicle: carboxymethylcellulose (CMC)",63 % of control
same,T/C,"dose: 640.0 mg/kg/injection, schedule: Q01DX007 (sc), vehicle: carboxymethylcellulose (CMC)",47 % of control
same,T/C,"dose: 640.0 mg/kg/injection, schedule: Q01DX007 (sc), vehicle: steriod suspending solution",17 % of control
same,T/C,"dose: 750.0 mg/kg/injection, schedule: Q01DX007 (ip), vehicle: carboxymethylcellulose (CMC)",35 % of control
same,T/C,"dose: 945.0 mg/kg/injection, schedule: Q01DX007 (ip), vehicle: carboxymethylcellulose (CMC)",44 % of control
NNC(=O)c1nsnc1N,T/C,"dose: 75.0 mg/kg/injection, schedule: Q01DX007 (ip), vehicle: carboxymethylcellulose (CMC)",97 % of control
